# Measurements reported in patent US20240417412A1, “HETEROCYCLIC COMPOUNDS AND METHODS OF USE” (AMGEN INC., priority 2022, published 2024).
# What was measured:
# KRAS G12D [1] = target: KRAS G12D (Homo sapiens, UniProt P01116, C118A/G12D); test: KRAS G12D Coupled Nucleotide Exchange Assay; type: biochemical; settings: GDP-bound KRAS G12D/C118A, 2 hours pre-incubation, SOS-mediated nucleotide exchange, AlphaScreen
# Protocol: The assay plates were then read on a PerkinElmer EnVision Multilabel Reader, using AlphaScreen® technology, and data were analyzed using a 4-parameter logistic model to calculate IC50 values.
# KRAS G12D [2] = target: KRAS G12D (Homo sapiens, UniProt P01116, G12D); test: KRAS G12D TR-FRET Assay; settings: His-tagged KRAS G12D, biotinylated KRPep-2d, read-out: KRAS G12D Binding IC50
# Protocol: The plate was incubated for 30 minutes at room temperature. Biotinylated KRPep-2d substrate (Amgen) was diluted to 20 nM in Assay Buffer and 2 uL was added to all wells and incubated for 1 hour at room temperature. Detection Reagent (0.4 nM LANCE Eu-W1024 Anti-6×His (Perkin Elmer AD0401), 5 nM streptavidin-d2 (Cisbio 610SADLA)) was prepared in Assay Buffer, then 4 μL was added to the plate and incubated for 1 hour at room temperature.
# p-ERK (AsPC-1 cells) = test: Phospho-ERK1/2 MSD Assay; type: cell-based; settings: Homo sapiens, ASPC1, 2 h, read-out: 2 h p-ERK (AsPC-1 cells), IC50 (μM), AsPC-1 cells, 2 hours compound treatment
# KRAS G12D (Homo sapiens, UniProt P01116, C118A/G12D), sequence (P01116 1-169 isoform P01116-2 G12D/C118A): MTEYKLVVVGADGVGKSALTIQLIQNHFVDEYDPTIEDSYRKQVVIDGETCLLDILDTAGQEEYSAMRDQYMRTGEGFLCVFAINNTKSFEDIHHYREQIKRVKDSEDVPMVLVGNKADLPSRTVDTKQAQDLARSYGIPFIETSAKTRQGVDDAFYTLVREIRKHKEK
# KRAS G12D (Homo sapiens, UniProt P01116, G12D), sequence (P01116 1-188 isoform P01116-2 G12D): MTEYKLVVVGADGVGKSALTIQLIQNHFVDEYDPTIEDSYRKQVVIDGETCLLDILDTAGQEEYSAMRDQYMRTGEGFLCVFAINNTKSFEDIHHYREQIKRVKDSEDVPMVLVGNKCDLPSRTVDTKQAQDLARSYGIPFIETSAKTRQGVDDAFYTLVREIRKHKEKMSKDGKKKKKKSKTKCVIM
IC50 (KRAS G12D [1]),IC50 (KRAS G12D [2]),IC50 (p-ERK (AsPC-1 cells)),SMILES
3 nM,2 nM,2.53 µM,"CCc1c(F)ccc2cc(O)cc(-c3ncc4c(N5CCCC6(CCS(=N)(=O)C6)C5)nc(OC[C@@]56CCCN5C[C@H](F)C6)nc4c3F)c12 (stereo partly drawn) [Example 39, 7-(7-(8-Ethyl-7-fluoro-3-hydroxynaphthalen-1-yl)-8-fluoro-2-(((2R,7aS)-2-fluorotetrahydro-1H-pyrrolizin-7a(5H)-yl)methoxy)pyrido[4,3-d]pyrimidin-4-yl)-2-imino-216-thia-7-azaspiro[4.5]decane 2-oxide]"
4 nM,3 nM,4.32 µM,"CCc1c(F)ccc2cc(O)cc(-c3ncc4c(N5CCCC6(COC(=O)N6)C5)nc(OC[C@@]56CCCN5C[C@H](F)C6)nc4c3F)c12 (stereo partly drawn) [Example 40, 7-(7-(8-Ethyl-7-fluoro-3-hydroxynaphthalen-1-yl)-8-fluoro-2-(((2R,7aS)-2-fluorotetrahydro-1H-pyrrolizin-7a(5H)-yl)methoxy)pyrido[4,3-d]pyrimidin-4-yl)-3-oxa-1,7-diazaspiro[4.5]decan-2-one]"
10 nM,19 nM,> 10 µM,"CCc1c(F)ccc2cc(O)cc(-c3ncc4c(N5CCC6(CC5)CNC(=O)O6)nc(OC[C@@]56CCCN5C[C@H](F)C6)nc4c3F)c12 [Example 41, 8-(7-(8-Ethyl-7-fluoro-3-hydroxynaphthalen-1-yl)-8-fluoro-2-(((2R,7aS)-2-fluorotetrahydro-1H-pyrrolizin-7a(5H)-yl)methoxy)pyrido[4,3-d]pyrimidin-4-yl)-1-oxa-3,8-diazaspiro[4.5]decan-2-one]"
5 nM,7 nM,3.18 µM,"CCc1c(F)ccc2cc(O)cc(-c3ncc4c(N5CCC6(CC5)COC(=O)N6)nc(OC[C@@]56CCCN5C[C@H](F)C6)nc4c3F)c12 [Example 42, 8-(7-(8-Ethyl-7-fluoro-3-hydroxynaphthalen-1-yl)-8-fluoro-2-(((2R,7aS)-2-fluorotetrahydro-1H-pyrrolizin-7a(5H)-yl)methoxy)pyrido[4,3-d]pyrimidin-4-yl)-3-oxa-1,8-diazaspiro[4.5]decan-2-one]"
3 nM,3 nM,0.252 µM,"CCc1c(F)ccc2cc(O)cc(-c3ncc4c(N5CCCC6(C5)CC6(F)F)nc(OC[C@@]56CCCN5C[C@H](F)C6)nc4c3F)c12 (stereo partly drawn) [Example 44, 4-(4-(1,1-Difluoro-5-azaspiro[2.5]octan-5-yl)-8-fluoro-2-(((2R,7aS)-2-fluorotetrahydro-1H-pyrrolizin-7a(5H)-yl)methoxy)pyrido[4,3-d]pyrimidin-7-yl)-5-ethyl-6-fluoronaphthalen-2-ol]"
2 nM,2 nM,0.182 µM,"CCc1c(F)ccc2cc(O)cc(-c3ncc4c(N5CCOCC6(CC(=O)N6)C5)nc(OC[C@@]56CCCN5C[C@H](F)C6)nc4c3F)c12 (stereo partly drawn) [Example 53, 9-(7-(8-Ethyl-7-fluoro-3-hydroxynaphthalen-1-yl)-8-fluoro-2-(((2R,7aS)-2-fluorotetrahydro-1H-pyrrolizin-7a(5H)-yl)methoxy)pyrido[4,3-d]pyrimidin-4-yl)-6-oxa-1,9-diazaspiro[3.6]decan-2-one]"
